Assay results: ChEMBL document CHEMBL4665709, “Rational Avoidance of Protease Cleavage Sites and Symmetrical End-Tagging Significantly Enhances the Stability and Therapeutic Potential of Antimicrobial Peptides” (J Med Chem, 2020)
Values after ≈ are worked out from the molar mass of the structure shown. Where a SMILES comes first, the peptide text is derived from it.

How the values were obtained:
[1] = tested on: Staphylococcus epidermidis; experiment: Antibacterial activity against Staphylococcus epidermidis ATCC 12228 after 18 to 24 hrs by CLSI-based broth microdilution method; type: functional; settings: time hrs 18-24
Staphylococcus aureus [2] = experiment: Antibacterial activity against methicillin-resistant Staphylococcus aureus 43300 after 18 to 24 hrs by CLSI-based broth microdilution method; type: functional; settings: time hrs 18-24
Escherichia coli [3] = experiment: Antibacterial activity against Escherichia coli UB1005 after 18 to 24 hrs by CLSI-based broth microdilution method; type: functional; settings: time hrs 18-24
Staphylococcus aureus [4] = experiment: Antibacterial activity against Staphylococcus aureus ATCC 29213 after 18 to 24 hrs by CLSI-based broth microdilution method; type: functional; settings: time hrs 18-24
[5] = Therapeutic index, ratio of MHC for human RBC to geometric mean of peptide MIC for Enterococcus faecalis ATCC 29212; type: toxicity; settings: human red blood cells (RBC), read-out: TI
[6] = Cytotoxicity against HEK-293T cells assessed as cell viability at 128 uM by MTT assay relative to control; type: cell-based; settings: human, read-out: Activity
Salmonella typhimurium [7] = experiment: Antibacterial activity against Salmonella typhimurium 7731 after 18 to 24 hrs by CLSI-based broth microdilution method; type: functional, Salmonella enterica subsp. enterica serovar Typhimurium; settings: Salmonella enterica, time hrs 18-24
Staphylococcus aureus [8] = experiment: Antibacterial activity against Staphylococcus aureus 11011 after 18 to 24 hrs by CLSI-based broth microdilution method; type: functional; settings: time hrs 18-24
[9] = Therapeutic index, ratio of MHC for human RBC to geometric mean of peptide MIC for Streptococcus agalactiae H92; type: toxicity; settings: human red blood cells (RBC), read-out: TI
Enterococcus faecalis = experiment: Antibacterial activity against Enterococcus faecalis ATCC 29212 after 18 to 24 hrs by CLSI-based broth microdilution method; type: functional; settings: time hrs 18-24
Salmonella enterica = experiment: Antibacterial activity against Salmonella choleraesuis 503 after 18 to 24 hrs by CLSI-based broth microdilution method; type: functional; settings: time hrs 18-24
[10] = Hemolytic activity in human RBC assessed as hemolysis at 1 to 128 uM relative to control; type: ADME, cell-based, Erythrocyte; settings: human red blood cells (RBC), dose 1-128 µM, read-out: Activity
Salmonella typhimurium [11] = experiment: Antibacterial activity against Salmonella typhimurium 14028 after 18 to 24 hrs by CLSI-based broth microdilution method; type: functional, Salmonella enterica subsp. enterica serovar Typhimurium; settings: Salmonella enterica, time hrs 18-24
[12] = Therapeutic index, ratio of MHC for human RBC to geometric mean of peptide MIC for Escherichia coli UB1005; type: toxicity; settings: human red blood cells (RBC), read-out: TI
Erythrocyte = experiment: Hemolytic activity in human RBC assessed as hemolysis; type: ADME, cell-based
[13] = Therapeutic index, ratio of MHC for human RBC to geometric mean of peptide MIC for Staphylococcus aureus 11011; type: toxicity; settings: human red blood cells (RBC), read-out: TI
[14] = Therapeutic index, ratio of MHC for human RBC to geometric mean of peptide MIC for Salmonella pullorum 7913; type: toxicity; settings: human red blood cells (RBC), read-out: TI
[15] = Therapeutic index, ratio of MHC for human RBC to geometric mean of peptide MIC for Escherichia coli ATCC 25922; type: toxicity; settings: human red blood cells (RBC), read-out: TI
[16] = Therapeutic index, ratio of MHC for human RBC to geometric mean of peptide MIC for Salmonella typhimurium 7731; type: toxicity; settings: human red blood cells (RBC), read-out: TI
[17] = Therapeutic index, ratio of MHC for human RBC to geometric mean of peptide MIC for Staphylococcus epidermidis ATCC 12228; type: toxicity; settings: human red blood cells (RBC), read-out: TI
Escherichia coli [18] = experiment: Antibacterial activity against Escherichia coli ATCC 25922 after 18 to 24 hrs by CLSI-based broth microdilution method; type: functional; settings: time hrs 18-24
[19] = Therapeutic index, ratio of MHC for human RBC to geometric mean of peptide MIC for Staphylococcus aureus ATCC 29213; type: toxicity; settings: human red blood cells (RBC), read-out: TI
Streptococcus agalactiae = experiment: Antibacterial activity against Streptococcus agalactiae H92 after 18 to 24 hrs by CLSI-based broth microdilution method; type: functional; settings: time hrs 18-24
[20] = Therapeutic index, ratio of MHC for human RBC to geometric mean of peptide MIC for Salmonella typhimurium 14028; type: toxicity; settings: human red blood cells (RBC), read-out: TI
[21] = Cytotoxicity against mouse RAW264.7 cells assessed as cell viability at 128 uM by MTT assay relative to control; type: cell-based; settings: read-out: Activity
[22] = Antibacterial activity against Salmonella pullorum 7913 after 18 to 24 hrs by CLSI-based broth microdilution method; type: functional, Salmonella enterica subsp. enterica serovar Pullorum; settings: Salmonella enterica, time hrs 18-24
[23] = Therapeutic index, ratio of MHC for human RBC to geometric mean of peptide MIC for Salmonella choleraesuis 503; type: toxicity; settings: human red blood cells (RBC), read-out: TI
[24] = Therapeutic index, ratio of MHC for human RBC to geometric mean of peptide MIC for methicillin-resistant Staphylococcus aureus 43300; type: toxicity; settings: human red blood cells (RBC), read-out: TI

| Structure (SMILES) | MIC [1] [µM] | MIC (Staphylococcus aureus [2]) [µM] | MIC (Escherichia coli [3]) [µM] | MIC (Staphylococcus aureus [4]) [µM] | selectivity ratio [5] | viability at 128 µM [6] [%] | MIC (Salmonella typhimurium [7]) [µM] | MIC (Staphylococcus aureus [8]) [µM] | selectivity ratio [9] | MIC (Enterococcus faecalis) [µM] | MIC (Salmonella enterica) [µM] | hemolysis at up to 128 µM [10] [%] | MIC (Salmonella typhimurium [11]) [µM] | selectivity ratio [12] | MHC (Erythrocyte) [µM] | selectivity ratio [13] | selectivity ratio [14] | selectivity ratio [15] | selectivity ratio [16] | selectivity ratio [17] | also measured |
| --- | --- | --- | --- | --- | --- | --- | --- | --- | --- | --- | --- | --- | --- | --- | --- | --- | --- | --- | --- | --- | --- |
| CC[C@H](C)[C@H](N)C(=O)N[C@H](C(=O)N[C@H](C(=O)N[C@@H](CS)C(=O)N[C@@H](CCCNC(=N)N)C(=O)N[C@@H](CCCCN)C(=O)N1CCC[C@H]1C(=O)N[C@H](C(=O)N[C@H](C(=O)N[C@@H](CS)C(=O)N[C@@H](CCCNC(=N)N)C(=O)N[C@@H](CCCCN)C(=O)N1CCC[C@H]1C(=O)N[C@H](C(=O)N[C@H](C(=O)N[C@@H](CS)C(=O)N[C@@H](CCCNC(=N)N)C(=O)N[C@@H](CCCCN)C(=O)N1CCC[C@H]1C(=O)N[C@H](C(=O)N[C@H](C(=O)N[C@H](C(N)=O)[C@@H](C)CC)[C@@H](C)CC)[C@@H](C)CC)[C@@H](C)CC)[C@@H](C)CC)[C@@H](C)CC)[C@@H](C)CC)[C@@H](C)CC)[C@@H](C)CC (H-IIICRKPIICRKPIICRKPIII-NH2) | > 64 | > 64 | 4 (≈ 10.4 µg/mL) | > 64 | 2.52 | > 90 | 8 (≈ 20.8 µg/mL) | > 64 | 2.52 | > 64 | 16 (≈ 41.6 µg/mL) | < 5 | 8 (≈ 20.8 µg/mL) | 16 | > 128 | 2.52 | 16 | 16 | 16 | 2.52 | MIC (Escherichia coli [18]): 4 µM (≈ 10.4 µg/mL); selectivity ratio [19]: 2.52; MIC (Streptococcus agalactiae): 16 µM (≈ 41.6 µg/mL); selectivity ratio [20]: 16; viability at 128 µM [21]: > 90%; MIC [22]: 16 µM (≈ 41.6 µg/mL); selectivity ratio [23]: 16; selectivity ratio [24]: 2.52 |
| CC[C@H](C)[C@H](N)C(=O)N[C@H](C(=O)N[C@H](C(=O)N[C@@H](CS)C(=O)N[C@@H](CCCNC(=N)N)C(=O)N[C@@H](CCCCN)C(=O)N1CCC[C@H]1C(=O)N[C@H](C(=O)N[C@H](C(=O)N[C@@H](CS)C(=O)N[C@@H](CCCNC(=N)N)C(=O)N[C@@H](CCCCN)C(=O)N1CCC[C@H]1C(=O)N[C@H](C(=O)N[C@H](C(=O)N[C@H](C(N)=O)[C@@H](C)CC)[C@@H](C)CC)[C@@H](C)CC)[C@@H](C)CC)[C@@H](C)CC)[C@@H](C)CC)[C@@H](C)CC (H-IIICRKPIICRKPIII-NH2) | > 64 | > 64 | 8 (≈ 15.1 µg/mL) | > 64 | 2 | > 90 | 32 (≈ 60.5 µg/mL) | > 64 | 2 | > 64 | 32 (≈ 60.5 µg/mL) | < 5 | 32 (≈ 60.5 µg/mL) | 6.35 | > 128 | 2 | 6.35 | 6.35 | 6.35 | 2 | MIC (Escherichia coli [18]): 8 µM (≈ 15.1 µg/mL); selectivity ratio [19]: 2; MIC (Streptococcus agalactiae): 64 µM (≈ 121 µg/mL); selectivity ratio [20]: 6.35; viability at 128 µM [21]: > 90%; MIC [22]: 32 µM (≈ 60.5 µg/mL); selectivity ratio [23]: 6.35; selectivity ratio [24]: 2 |
| CC(C)[C@H](N)C(=O)N[C@@H](CS)C(=O)N[C@@H](CCCNC(=N)N)C(=O)N[C@@H](CCCCN)C(=O)N1CCC[C@H]1C(=O)N[C@H](C(=O)N[C@H](C(=O)N[C@@H](CS)C(=O)N[C@@H](CCCNC(=N)N)C(=O)N[C@@H](CCCCN)C(=O)N1CCC[C@H]1C(=O)N[C@H](C(N)=O)C(C)C)C(C)C)C(C)C (H-VCRKPVVCRKPV-NH2) | > 64 | > 64 | > 64 | > 64 | 2 | > 90 | > 64 | > 64 | 2 | > 64 | > 64 | < 5 | > 64 | 2 | > 128 | 2 | 2 | 2 | 2 | 2 | MIC (Escherichia coli [18]): > 64 µM; selectivity ratio [19]: 2; MIC (Streptococcus agalactiae): > 64 µM; selectivity ratio [20]: 2; viability at 128 µM [21]: > 90%; MIC [22]: > 64 µM; selectivity ratio [23]: 2; selectivity ratio [24]: 2 |
| CC(C)[C@H](N)C(=O)N[C@@H](CS)C(=O)N[C@@H](CCCNC(=N)N)C(=O)N[C@@H](CCCCN)C(=O)N1CCC[C@H]1C(=O)N[C@H](C(=O)N[C@H](C(=O)N[C@@H](CS)C(=O)N[C@@H](CCCNC(=N)N)C(=O)N[C@@H](CCCCN)C(=O)N1CCC[C@H]1C(=O)N[C@H](C(=O)N[C@H](C(=O)N[C@@H](CS)C(=O)N[C@@H](CCCNC(=N)N)C(=O)N[C@@H](CCCCN)C(=O)N1CCC[C@H]1C(=O)N[C@H](C(N)=O)C(C)C)C(C)C)C(C)C)C(C)C)C(C)C (H-VCRKPVVCRKPVVCRKPV-NH2) | > 64 | > 64 | 16 (≈ 33.1 µg/mL) | > 64 | 2 | > 90 | 16 (≈ 33.1 µg/mL) | > 64 | 2 | > 64 | > 64 | < 5 | 8 (≈ 16.5 µg/mL) | 6.35 | > 128 | 2 | 6.35 | 6.35 | 6.35 | 2 | MIC (Escherichia coli [18]): 8 µM (≈ 16.5 µg/mL); selectivity ratio [19]: 2; MIC (Streptococcus agalactiae): > 64 µM; selectivity ratio [20]: 6.35; viability at 128 µM [21]: > 90%; MIC [22]: > 64 µM; selectivity ratio [23]: 6.35; selectivity ratio [24]: 2 |
